Converted amounts (≈) assume the structure as drawn. Read-outs that look alike come from different tables or passages of the source.
What was measured:
[1] = system: P. aeruginosa A9843; test: Median protective dose in infected mice; format: in vivo; settings: Pseudomonas aeruginosa, im, immediately after intraperitoneal challenge, read-out: PD50
Description: (§1) The median protective dose (PD50) of some of the preferred compounds against various microorganisms was determined in mice by intramuscular administration of the test compound immediately after an intraperitoneal bacterial challenge.

[2] = system: S. aureus Smith; test: Median protective dose in infected mice; format: in vivo; settings: Staphylococcus aureus, im, immediately after intraperitoneal challenge, read-out: PD50
Description: as §1

[3] = system: E. coli Juhl; test: Median protective dose in infected mice; format: in vivo; settings: Escherichia coli, im, immediately after intraperitoneal challenge, read-out: PD50
Description: as §1

[4] = system: Cephalothinresistant E. coli (3 strains) and Kl. pneumoniae (3 strains); test: MIC, two-fold serial agar dilution, group (G-)-Ib; format: cell-based; settings: Escherichia coli, read-out: Geometric Mean of MIC
Description: (§2) In the primary evaluation of the compounds of this invention, the Minimum Inhibitory Concentrations (MIC's) of the compounds were determined by the two-fold serial agar dilution method in Mueller-Hinton agar against 32 strains of test organisms in six groups. The sample weights of the test compounds were adjusted according to the purity of each compound, so as to give a more accurate measure of the MIC's.
(G-)Ib: Cephalothinresistant E. coli (3 strains) and Kl. pneumoniae (3

[5] = system: Penicillinsensitive S. aureus (5 strains); test: MIC, two-fold serial agar dilution, group (G+)-Ia; format: cell-based; settings: Staphylococcus aureus, read-out: Geometric Mean of MIC
Description: as §2
(G+)Ia: Penicillinsensitive S. aureus (5 strains)

[6] = system: Ps. aeruginosa (6 strains); test: MIC, two-fold serial agar dilution, group (G-)-III; format: cell-based; settings: Pseudomonas aeruginosa, read-out: Geometric Mean of MIC
Description: as §2
(G-)III: Ps. aeruginosa (6 strains)

[7] = system: M. morganii (1 strain), Ent. cloacae (2 strains) and Ser. marcescens (2 strains); test: MIC, two-fold serial agar dilution, group (G-)-II; format: cell-based; settings: read-out: Geometric Mean of MIC
Description: as §2
(G-)II: M. morganii (1 strain), Ent. cloacae (2 strains) and Ser.

[8] = system: Cephalothinsensitive E. coli (2 strains), Kl. pneumoniae (1 strain) and Pr. mirabilis (2 strains); test: MIC, two-fold serial agar dilution, group (G-)-Ia; format: cell-based; settings: 5 strains, Mueller-Hinton agar, read-out: Geometric Mean of MIC
Description: as §2
(G-)Ia: Cephalothinsensitive E. coli (2 strains), Kl. pneumoniae (1
strain) and Pr. mirabilis (2 strains)

[9] = system: Penicillinresistant S. aureus (5 strains); test: MIC, two-fold serial agar dilution, group (G+)-Ib; format: cell-based; settings: Staphylococcus aureus, read-out: Geometric Mean of MIC
Description: as §2
(G+)Ib: Penicillinresistant S. aureus (5 strains)

[10] = Mouse blood levels after single intramuscular injection; format: in vivo, mice; settings: in vivo, im, 20 mg/kg
Description: The absorption of some of the preferred compounds were determined in mice following a single intramuscular injection of the test compound (dissolved in 0.1M phosphate buffer; pH 7) at a dosage of 20 mg/kg. Blood samples were collected from the orbital sinuses into heparinized capillary tubes and assayed in Nutrient Agar (pH 6.6) using E. coli Ess-22-31 as the test organism. The blood levels at various time intervals, the half-life values (t1/2) and the areas under the curve (AUC) are shown in Table 2.

[11] = (G+)-Ia, 5 strains, Mueller-Hinton agar
[12] = (G-)-III, 6 strains, Mueller-Hinton agar
[13] = (G-)-II, 5 strains, Mueller-Hinton agar
[14] = (G+)-Ib, 5 strains, Mueller-Hinton agar

Structure (SMILES)	ED50 [2] [mg/kg]	ED50 [3] [mg/kg]	MIC [4] [µg/mL]	MIC [5, 11] [µg/mL]	MIC [6, 12] [µg/mL]	MIC [7] [µg/mL]	MIC [8] [µg/mL]	AUC [10] [ng·h/mL]	concentration at 10 min [10] [ng/mL]	concentration at 20 min [10] [ng/mL]	concentration at 0.5 h [10] [ng/mL]	concentration at 40 min [10] [ng/mL]	concentration at 50 min [10] [ng/mL]	concentration at 1 h [10] [ng/mL]	concentration at 1.5 h [10] [ng/mL]	concentration at 2 h [10] [ng/mL]	half-life [10] [min]	MIC [7, 13] [µg/mL]	MIC [9, 14] [µg/mL]	further results
CO/N=C(\C(=O)NC1C(=O)N2C(C(=O)[O-])=C(C[n+]3ccc4sc(C=O)nc4c3)CSC12)c1csc(N)n1 (stereo not shown) [Iw, 7-[(Z)-2-(2-Aminothiazol-4-yl)-2-methoxyiminoacetamido]-3-(2-formylthiazolo[4,5-c]pyridinio)methyl-3-cephem-4-carboxylate]	1.3	0.015	0.17 (≈ 0.304 µM)	0.53 (≈ 0.947 µM)	1.7 (≈ 3.04 µM)	0.2 (≈ 0.357 µM)	0.016 (≈ 0.0286 µM)	11000	20000	19000	8900	6600	3900	2000	1000	480	19			ED50 [1]: 4.7 mg/kg; MIC [9]: 1.6 µg/mL (≈ 2.86 µM)
CO/N=C(\C(=O)NC1C(=O)N2C(C(=O)[O-])=C(C[n+]3ccc4sc(C(=O)O)nc4c3)CS[C@H]12)c1csc(N)n1 (stereo partly shown) [Iv, 7-[(Z)-2-(2-Aminothiazol-4-yl)-2-methoxyiminoacetamido]-3-(2-carboxy-5-thiazolo[4,5-c]pyridinio)methyl-3-cephem-4-carboxylate]	2.6	0.024	1.2 (≈ 2.08 µM)		5.7 (≈ 9.9 µM)		0.014 (≈ 0.0243 µM)	10000	17000	16000	10000	5900	4300	3000	1200	< 200	19	0.69 (≈ 1.2 µM)	3.1 (≈ 5.39 µM)	ED50 [1]: 21 mg/kg; MIC [5]: 1.6 µg/mL (≈ 2.78 µM)
CO/N=C(\C(=O)NC1C(=O)N2C(C(=O)[O-])=C(C[n+]3ccc4sc(N)nc4c3)CSC12)c1csc(N)n1 (stereo not shown) [In, 7-[(Z)-2-(2-Aminothiazol-4-yl)-2-methoxyiminoacetamido]-3-[{5-(2-aminothiazolo[4,5-c]pyridinio)}methyl]-3-cephem-4-carboxylate]	0.9	< 0.01	0.096 (≈ 0.176 µM)	0.32 (≈ 0.585 µM)	1.9 (≈ 3.48 µM)		0.01 (≈ 0.0183 µM)	11000	14000	14000	7600	7000	4400	3900	2900	1000	29	0.17 (≈ 0.311 µM)	0.72 (≈ 1.32 µM)	ED50 [1]: 2.8 mg/kg
CO/N=C(\C(=O)NC1C(=O)N2C(C(=O)[O-])=C(C[n+]3ccc4sc(C)nc4c3)CSC12)c1csc(N)n1 (stereo not shown) [Ih, 7-[(Z)-2-(2-Aminothiazol-4-yl)-2-methoxyiminoacetamido]-3-[{5-(2-methylthiazolo[4,5-c]pyridinio)}methyl]-3-cephem-4-carboxylate]			0.058 (≈ 0.106 µM)	0.34 (≈ 0.623 µM)	2.3 (≈ 4.22 µM)	0.11 (≈ 0.202 µM)	0.007 (≈ 0.0128 µM)	8600	16000	10000	6900	5900	4100	3000	790	130	16		0.78 (≈ 1.43 µM)	
CCO/N=C(\C(=O)NC1C(=O)N2C(C(=O)[O-])=C(C[n+]3ccc4scnc4c3)CSC12)c1csc(N)n1 (stereo not shown) [Ib, 7-[(Z)-2-(2-Aminothiazol-4-yl)-2-ethoxyiminoacetamido]-3-{(5-thiazolo[4,5-c]pyridino)methyl}-3-cephem-4-carboxylate]			0.22 (≈ 0.403 µM)	0.42 (≈ 0.77 µM)	2.6 (≈ 4.77 µM)	0.32 (≈ 0.586 µM)	0.035 (≈ 0.0641 µM)	8400	15000	22000	8400	6100	3800	920	680	430	19		0.96 (≈ 1.76 µM)	
CCO/N=C(\C(=O)NC1C(=O)N2C(C(=O)[O-])=C(C[n+]3ccc4sc(N)nc4c3)CSC12)c1csc(N)n1 (stereo not shown) [Ij, 7-[(Z)-2-(2-Aminothiazol-4-yl)-2-ethoxyiminoacetamido]-3-[{5-(2-aminothiazolo[4,5-c]pyridinio)}methyl]-3-cephem-4-carboxylate]			0.17 (≈ 0.303 µM)	0.36 (≈ 0.642 µM)	3 (≈ 5.35 µM)		0.02 (≈ 0.0357 µM)											0.24 (≈ 0.428 µM)	0.48 (≈ 0.856 µM)	
Nc1nc(/C(=N/OCC(=O)O)C(=O)NC2C(=O)N3C(C(=O)[O-])=C(C[n+]4ccc5sc(N)nc5c4)CS[C@H]23)cs1 (stereo partly shown) [Ig, 7-[(Z)-2-(2-Aminothiazol-4-yl)-2-(carboxymethoxyimino)acetamido]-3-(2-amino-5-thiazolo[4,5-c]pyridinio)methyl-3-cephem-4-carboxylate]			0.3 (≈ 0.508 µM)	2.1 (≈ 3.56 µM)		0.1 (≈ 0.169 µM)	0.0072 (≈ 0.0122 µM)	15000	21000	17000	15000	10000	7600	6300	1900	840	22			MIC [6]: 1.8 µg/mL (≈ 3.05 µM); MIC [9]: 3.6 µg/mL (≈ 6.1 µM)
CO/N=C(\C(=O)NC1C(=O)N2C(C(=O)[O-])=C(C[n+]3ccc4sc(C(N)=O)nc4c3)CS[C@H]12)c1csc(N)n1 (stereo partly shown) [Ix, 7-[(Z)-2-(2-Aminothiazol-4-yl)-2-methoxyiminoacetamido]-3-(2-carbamoyl-5-thiazolo[4,5-c]pyridinio)methyl-3-cephem-4-carboxylate]	1.5	0.013	0.2 (≈ 0.348 µM)	0.53 (≈ 0.922 µM)	2.8 (≈ 4.87 µM)		0.022 (≈ 0.0383 µM)	19000	20000	18000	20000	13000	11000	7000	4200	2100	31	0.39 (≈ 0.679 µM)	0.8 (≈ 1.39 µM)	
CNC(=O)Nc1nc2c[n+](CC3=C(C(=O)[O-])N4C(=O)C(NC(=O)/C(=N\OC)c5csc(N)n5)[C@H]4SC3)ccc2s1 (stereo partly shown) [Ir, 7-[(Z)-2-(2-Aminothiazol-4-yl)-2-methoxyiminoacetamido]-3-[2-(3-methylureido)-5-thiazolo[4,5-c]pyridinio]methyl-3-cephem-4-carboxylate]			0.46 (≈ 0.762 µM)		5.2 (≈ 8.61 µM)		0.025 (≈ 0.0414 µM)											0.52 (≈ 0.861 µM)	0.8 (≈ 1.33 µM)	MIC [5]: 0.4 µg/mL (≈ 0.663 µM)
CC(C)(O/N=C(\C(=O)NC1C(=O)N2C(C(=O)[O-])=C(C[n+]3ccc4sc(N)nc4c3)CSC12)c1csc(N)n1)C(=O)O (stereo not shown) [Io, 7-[(Z)-2-(2-Aminothiazol-4-yl)-2-(2-carboxyprop-2-oxyimino)-acetamido]-3-[{5-(2-aminothiazolo[4,5-c]pyridinio)}methyl]-3-cephem-4-carboxylate]			0.47 (≈ 0.76 µM)		1.5 (≈ 2.42 µM)		0.023 (≈ 0.0372 µM)											0.66 (≈ 1.07 µM)	3.8 (≈ 6.14 µM)	MIC [5]: 1.6 µg/mL (≈ 2.59 µM)
CO/N=C(\C(=O)NC1C(=O)N2C(C(=O)[O-])=C(C[n+]3ccc4sc(SC)nc4c3)CSC12)c1csc(N)n1 (stereo not shown) [Ii, 7-[(Z)-2-(2-Aminothiazol-4-yl)-2-methoxyiminoacetamido]-3-[{5-(2-methylthiothiazolo[4,5-c]pyridinio)}methyl]-3-cephem-4-carboxylate]			0.13 (≈ 0.225 µM)	0.23 (≈ 0.398 µM)			0.025 (≈ 0.0433 µM)	6800	14000	10000	5900	4800	2400	1500	250	< 100	13	0.24 (≈ 0.415 µM)		MIC [6]: 5.5 µg/mL (≈ 9.52 µM); MIC [9]: 0.2 µg/mL (≈ 0.346 µM)
